The target of this experiment is T1, Human BACE (Homo sapiens, UniProt P56817).
T1 construct: Recombinant BACE (extracellular domain, expressed in baculovirus and purified using standard methods); made in house
As to the kind of experiment: Test 1: Inhibition of Human BACE. In kind it is biochemical. As for the experimental part:
Test 1: Inhibition of Human BACE
Recombinant BACE (extracellular domain, expressed in baculovirus and purified using standard methods) at 0.1 to 10 nM concentrations is incubated with the test compound at various concentrations for 1 hour at room temperature in 10 to 100 mM acetate buffer, pH 4.5, containing 0.1% CHAPS. […] IC50 values are calculated from percentage of inhibition of BACE-activity as a function of the test compound concentration.

Setting [1] is: Test 1, recombinant BACE extracellular domain, acetate buffer pH 4.5, 1 hour incubation at room temperature, fluorescence-quenched APP-derived peptide substrate, read-out: Bace IC50.

Counter-ions that a name gives are not always drawn. Like-named read-outs stand apart in the source and are kept apart here.

T1 sequence (P56817 46-457 limits assumed): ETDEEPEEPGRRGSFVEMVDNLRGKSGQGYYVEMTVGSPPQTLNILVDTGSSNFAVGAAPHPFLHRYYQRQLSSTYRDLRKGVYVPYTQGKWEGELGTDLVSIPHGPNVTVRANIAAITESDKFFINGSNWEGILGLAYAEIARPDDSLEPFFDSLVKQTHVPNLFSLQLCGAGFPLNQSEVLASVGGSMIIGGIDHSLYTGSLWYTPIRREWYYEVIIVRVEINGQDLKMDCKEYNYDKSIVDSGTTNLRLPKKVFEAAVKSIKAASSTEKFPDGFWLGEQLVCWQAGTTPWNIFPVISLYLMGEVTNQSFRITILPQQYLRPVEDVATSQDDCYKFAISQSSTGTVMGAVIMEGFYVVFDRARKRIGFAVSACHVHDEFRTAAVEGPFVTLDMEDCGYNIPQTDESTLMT

In general, IC50 refers to the concentration that inhibits the measured activity by half. With `CC(C)(C)c1cccc(CN[C@H]2CS(=O)(=O)C[C@@H](Cc3cc(F)c(N)c(N4CCCC4=O)c3)[C@@H]2O)c1` (relative stereo) [Example 4, 1-{2-Amino-5-[(3S*,4S*,5R*)-5-(3-tert-butyl-benzylamino)-4-hydroxy-1,1-dioxo-hexahydro-1lambda*6*-thiopyran-3-ylmethyl]-3-fluoro-phenyl}-pyrrolidin-2-one di-trifluoroacetate], under setting [1], the IC50 is 326 nM.

For `COC[C@@H](Oc1cc(C[C@@H]2C[S@@+]([O-])C[C@H](NCc3cc(OC)cc(C(C)(C)C)c3)[C@H]2O)cc(F)c1N)C(F)(F)F` [Example 49, (1R,3S,4S,5R)-3-[4-Amino-3-fluoro-5-((R)-2,2,2-trifluoro-1-methoxymethyl-ethoxy)-benzyl]-5-(3-tert-butyl-5-methoxy-benzylamino)-1-oxo-tetrahydro-thiopyran-4-ol dihydrochloride], the IC50 under setting [1] stood at 15 nM.

For `C[C@H](Oc1cc(C[C@@H]2C[S@@+]([O-])C[C@H](NCc3ccc4c(c3)C(C)(C)OC4)[C@H]2O)cc(F)c1N)C(F)(F)F` [Example 52, (1R,3S,4S,5R)-3-[4-Amino-3-fluoro-5-((S)-2,2,2-trifluoro-1-methyl-ethoxy)-benzyl]-5-[(3,3-dimethyl-1,3-dihydro-isobenzofuran-5-ylmethyl)-amino]-1-oxo-hexa-hydro-1lambda*4*-thiopyran-4-ol], the IC50 under setting [1] is 117 nM.

Take `C[Si](C)(C)c1cccc(CNC2C[S+]([O-])CC(Cc3cc(F)c(N)c(OCC(F)(F)F)c3)C2O)c1` (stereo not shown) [Example 63]: the 50% inhibitory concentration (IC50) under setting [1] came to 118 nM.

For the compound `CCNCc1cc(C[C@@H]2CS(=O)(=O)C[C@H](NCc3cccc(C(C)(C)C)c3)[C@H]2O)cc(F)c1N` (relative stereo) [Example 3, (3S*,4S*,5R*)-3-(4-Amino-3-ethylaminomethyl-5-fluoro-benzyl)-5-(3-tert-butyl-benzylamino)-1,1-dioxo-hexahydro-1lambda*6*-thiopyran-4-ol hydrochloride], under setting [1], the 50% inhibitory concentration (IC50) was found to be 1140 nM.

Turning to `CCNC(=O)c1cc(CC2CS(=O)(=O)CC(NCc3cccc(C(C)(C)C)c3)C2O)ccc1N` (stereo not shown) [Example 19], under setting [1], the IC50 turned out to be 26 nM.

Regarding `COCC(Oc1cc(CC2C[S+]([O-])CC(NCc3cccc(OC)c3)C2O)cc(F)c1N)C(F)(F)F` (stereo not shown) [Example 59], under setting [1], the IC50 came out at 384 nM.

As for `CCNCC(=O)Nc1c(F)cc(C[C@@H]2CS(=O)(=O)C[C@H](NCc3cccc(C(C)(C)C)c3)[C@H]2O)cc1Cl` [Example 12], the IC50 under setting [1] is 20 nM.

For `CC(C)(C)c1cccc(CN[C@H]2CS(=O)(=O)C[C@@H](Cc3cc(F)c(NC(=O)CN4CCCCC4)c(OCC(F)(F)F)c3)[C@@H]2O)c1` [Example 29], under setting [1], the IC50 is 5 nM.

With `CC(C)(C)c1cccc(CNC2CS(=O)(=O)CC(Cc3ccc(N)c(C(=O)NCCF)c3)C2O)c1` (stereo not shown) [Example 22], the IC50 under setting [1] is 46 nM.

Consider `CN(C)CC(=O)Nc1c(F)cc(C[C@@H]2CS(=O)(=O)C[C@H](NCc3cccc(C(C)(C)C)c3)[C@H]2O)cc1OCC(F)(F)F` [Example 26, N-[4-[(3S,4S,5R)-5-(3-tert-Butyl-benzylamino)-4-hydroxy-1,1-dioxo-hexahydro-1lambda*6*-thiopyran-3-ylmethyl]-2-fluoro-6-(2,2,2-trifluoro-ethoxy)-phenyl]-2-dimethylamino-acetamide dihydrochloride], for which, under setting [1], the IC50 is 7 nM.

Consider `CCNCC(=O)Nc1c(F)cc(C[C@@H]2CS(=O)(=O)C[C@H](NCc3cccc(C(C)(C)C)c3)[C@H]2O)cc1CC` [Example 8, N-{4-[(3S,4S,5R)-5-(3-tert-Butyl-benzylamino)-4-hydroxy-1,1-dioxo-hexahydro-1lambda*6*-thiopyran-3-ylmethyl]-2-ethyl-6-fluoro-phenyl}-2-ethylamino-acetamide dihydrochloride], for which, under setting [1], the IC50 turned out to be 42 nM.

For the compound `CC(C)(C)c1cccc(CN[C@H]2CS(=O)(=O)C[C@@H](Cc3cc(F)c(NC(=O)CN4CCC4)c(OCC(F)(F)F)c3)[C@@H]2O)c1` [Example 28], the IC50 under setting [1] is 7 nM.

`CC(C)(C)c1cccc(CNC2CS(=O)(=O)CC(Cc3ccc(N)c(C(=O)NCC(F)(F)F)c3)C2O)c1` (stereo not shown) [Example 23]: under setting [1], the IC50 is 175 nM.

For the compound `COCC(Oc1cc(CC2C[S+]([O-])CC(NCc3cccc(OC(F)F)c3)C2O)cc(F)c1N)C(F)(F)F` (stereo not shown) [Example 62], the IC50 under setting [1] stood at 334 nM.

Take `CCc1cc(C[C@@H]2CS(=O)(=O)C[C@H](NCc3cccc(C(C)(C)C)c3)[C@H]2O)cc(F)c1NC(=O)COC` [Example 10, N-{4-[(3S,4S,5R)-5-(3-tert-Butyl-benzylamino)-4-hydroxy-1,1-dioxo-hexa-hydro-1lambda*6*-thiopyran-3-ylmethyl]-2-ethyl-6-fluoro-phenyl}-2-methoxy-acetamide hydrochloride]: the IC50 under setting [1] came to 48 nM.

Take `CCCCNC(=O)c1cc(C[C@@H]2CS(=O)(=O)C[C@H](NCc3cccc(C(C)(C)C)c3)[C@H]2O)ccc1N` (racemic) [Example 18, 2-Amino-N-butyl-5-[3S*,4S*,5R*)-5-(3-tert-butyl-benzylamino)-4-hydroxy-1,1-dioxo-hexahydro-1lambda*6*-thiopyran-3-ylmethyl]-benzamide]: under setting [1], the IC50 turned out to be 38 nM.

For the compound `CC(C)(C)c1cccc(CN[C@H]2CS(=O)(=O)C[C@@H](Cc3cc(F)c(N)c(N4CCC4=O)c3)[C@@H]2O)c1` (relative stereo) [Example 5, 1 {2-Amino-5-[(3S*,4S*,5R*)-5-(3-tert-butyl-benzylamino)-4-hydroxy-1,1-dioxo-hexahydro-1lambda*6*-thiopyran-3-ylmethyl]-3-fluoro-phenyl}-azetidin-2-one], the IC50 under setting [1] is 4700 nM.

For the compound `CCNCC(=O)Nc1c(F)cc(C[C@@H]2CS(=O)(=O)C[C@H](NCc3cccc(C(C)(C)C)c3)[C@H]2O)cc1OCC(F)(F)F` [Example 27], the IC50 under setting [1] stood at 3 nM.

For `COC[C@@H](Oc1cc(C[C@@H]2C[S@@+]([O-])C[C@H](NCc3cc(OC)cc(C(C)C)c3)[C@H]2O)cc(F)c1N)C(F)(F)F` [Example 48, (1R,3S,4S,5R)-3-[4-Amino-3-fluoro-5-((R)-2,2,2-trifluoro-1-methoxymethyl-ethoxy)-benzyl]-5-(3-isopropyl-5-methoxy-benzylamino)-1-oxo-tetrahydro-thiopyran-4-ol], under setting [1], the IC50 worked out at 26 nM.

Turning to `CC(C)(C)c1cccc(CN[C@H]2CS(=O)(=O)C[C@@H](Cc3cc(F)c(N)c(O[C@H](CO)C(F)(F)F)c3)[C@@H]2O)c1` [Example 38, (3S,4S,5R)-3-[4-Amino-3-fluoro-5-((R)-2,2,2-trifluoro-1-hydroxymethyl-ethoxy)-benzyl]-5-(3-tert-butyl-benzylamino)-1,1-dioxo-hexahydro-1lambda*6*-thio-pyran-4-ol], under setting [1], the IC50 worked out at 3 nM.

With `CN(C)CCNc1ccc(C[C@@H]2CS(=O)(=O)C[C@H](NCc3cccc(C(C)(C)C)c3)[C@H]2O)cc1F` (racemic) [Example 7, (3R*,4S*,5S*)-3-(3-tert-Butyl-benzylamino)-5-[4A2-dimethylamino-ethyl-amino)-3-fluoro-benzyl]-1,1-dioxo-hexahydro-1lambda*6*-thiopyran-4-ol], under setting [1], the IC50 was found to be 8400 nM.

As to `CC(C)(C)c1cccc(CN[C@H]2CS(=O)(=O)C[C@@H](Cc3cc(F)c(NC(=O)CNC4CC4)c(Cl)c3)[C@@H]2O)c1` [Example 14, N-{4-[(3S,4S,5R)-5-(3-tert-butyl-benzylamino)-4-hydroxy-1,1-dioxo-hexa-hydro-1lambda*6*-thiopyran-3-ylmethyl]-2-chloro-6-fluoro-phenyl}-2-cyclopropylamino-acetamide], under setting [1], the 50% inhibitory concentration (IC50) came out at 22 nM.

Regarding `C[Si](C)(C)c1cccc(CN[C@H]2CS(=O)(=O)C[C@@H](Cc3cc(F)c(N)c(OC(C(F)(F)F)C(F)(F)F)c3)[C@@H]2O)c1` [Example 31, (3S,4S,5R)-3-[4-Amino-3-fluoro-5-(2,2,2-trifluoro-1-trifluoromethyl-ethoxy)-benzyl]-1,1-dioxo-5-(3-trimethylsilanyl-benzylamino)-hexahydro-1lambda*6*-thiopyran-4-ol], under setting [1], the IC50 amounted to 22 nM.

Take `COC[C@@H](Oc1cc(C[C@@H]2C[S@@+]([O-])C[C@H](NCc3cccc(C(C)(C)C)c3)C2=O)cc(F)c1N)C(F)(F)F` [Example 64, (1R,3S,5R)-3-[4-Amino-3-fluoro-5-((R)-2,2,2-trifluoro-1-methoxymethyl-ethoxy)-benzyl]-5-(3-tert-butyl-benzylamino)-1-oxo-tetrahydro-thiopyran-4-one trifluoroacetate]: it took 4 nM to reach half-maximal inhibition (IC50).

Source of the values: US8093406B2, “Cyclic sulfones with aminobenzyl substitution useful as BACE inhibitors” (Novartis AG, priority 2008, dated 2012).
